Data reported in BindingDB's records for doi:10.7270/Q2B27SRF (Broad Institute, 2010).

Molecular target: Serine/threonine-protein kinase 33 (Homo sapiens, UniProt Q9BYT3)
Test: STK33 kinase inhibitors, dose response, biochemical, luminescence, cell-free, retest (AID 2821)

Serine/threonine-protein kinase 33, sequence (Q9BYT3 whole entry): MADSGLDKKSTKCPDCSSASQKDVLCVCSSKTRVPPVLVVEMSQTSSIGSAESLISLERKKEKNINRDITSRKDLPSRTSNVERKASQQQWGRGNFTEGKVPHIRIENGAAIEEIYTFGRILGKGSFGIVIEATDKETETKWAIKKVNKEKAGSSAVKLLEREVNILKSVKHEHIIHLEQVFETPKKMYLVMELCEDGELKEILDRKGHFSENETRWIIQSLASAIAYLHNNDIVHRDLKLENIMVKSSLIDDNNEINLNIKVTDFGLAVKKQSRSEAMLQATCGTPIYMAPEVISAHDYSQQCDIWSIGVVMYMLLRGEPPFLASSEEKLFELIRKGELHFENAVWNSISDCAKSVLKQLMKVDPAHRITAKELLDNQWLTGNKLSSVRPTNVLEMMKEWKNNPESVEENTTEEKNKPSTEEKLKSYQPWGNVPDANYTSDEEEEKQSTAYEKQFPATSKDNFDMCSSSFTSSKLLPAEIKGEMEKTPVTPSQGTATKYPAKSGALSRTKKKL

| SMILES | EC50 [µM] |
| --- | --- |
| CCn1c2ccccc2c(=O)c2ccccc21 [10-ethyl-9-acridinone] | 16.7 |
| Cc1ccc(C(=O)O/N=C(\N)c2ccccn2)c(Cl)c1 [MLS001206211] | 32.2 |
| COc1ccc(O)c(-c2nc(N)nc(N)n2)c1 [(6Z)-6-[4,6-bis(azanyl)-1H-1,3,5-triazin-2-ylidene]-4-methoxy-cyclohexa-2,4-dien-1-one] | 8.14 |
| COc1cc(C)c2c(c1C=O)Oc1c(c(C)c(O)c3c1C(O)OC3=O)OC2=O (stereo not drawn) [1,4-Dihydroxy-10-methoxy-5,8-dimethyl-3,7-dioxo-1,3-dihydro-7H-benzo[e]furo[3',4':3,4]benzo[b][1,4]dioxepine-11-carbaldehyde] | 32 |
| CN(C)/C=C/C(=O)c1ccc2noc(-c3cccc(F)c3)c2c1 [(E)-3-(dimethylamino)-1-[3-(3-fluorophenyl)-2,1-benzoxazol-5-yl]-2-propen-1-one] | 18.7 |
| S=C(Nc1ccccc1)Nc1ccc2c[nH]nc2c1 [MLS000516600] | 19.5 |
| COc1cc(C=Nn2c(-c3ccccc3)n[nH]c2=S)ccc1O [(4E)-2-methoxy-4-[[(3-phenyl-5-sulfanylidene-1H-1,2,4-triazol-4-yl)amino]methylidene]cyclohexa-2,5-dien-1-one] | 7.09 |
| Cc1c(/C=C/C(=O)c2ccc(O)cc2)cnn1C [MLS000578554] | 22.2 |
| Oc1ccc(C=Nn2c(-c3ccccc3)n[nH]c2=S)cc1 [SMR000513437] | 25.8 |
| O=C(Nc1cccc(-c2cn3cccnc3n2)c1)c1ccc(Br)o1 [5-bromanyl-N-(3-imidazo[1,2-a]pyrimidin-2-ylphenyl)furan-2-carboxamide] | 16 |
| O=C1NCCCc2c1oc1ccc(O)cc21 [7-hydroxy-2,3,4,5-tetrahydro-[1]benzofuro[2,3-c]azepin-1-one] | 3.71 |
| c1cncc(Nc2nc(-c3cccnc3)cs2)c1 [SMR000077836] | 26.6 |
| Nc1nc(-c2cc(O)ccc2[N+](=O)[O-])cc(-c2ccccc2)c1[N+](=O)[O-] [SMR000504332] | < 0.1 |
| CCCCCCCCCC[N+](C)(C)CC/C=C1/c2ccccc2Sc2ccc(Cl)cc21 [[(3Z)-3-(2-chloro-9-thioxanthenylidene)propyl]-decyl-dimethylammonium;bromide] | > 120 |
| O=c1c(O)c(-c2cc(O)c(O)c(O)c2)oc2cc(O)cc(O)c12 | 18 |
| COC(=O)c1cc(NC(=O)C2COc3ccccc3O2)cc(C(=O)OC)c1 (stereo not drawn) [dimethyl 5-(2,3-dihydro-1,4-benzodioxin-3-ylcarbonylamino)benzene-1,3-dicarboxylate] | > 120 |
| Oc1ccc(C=NNC(=S)NN=Cc2ccc(O)cc2)cc1 [1,3-bis[(4-oxo-1-cyclohexa-2,5-dienylidene)methylamino]thiourea] | 40.9 |
| O=C1c2ccccc2-c2onc3ccc(NCCCn4ccnc4)c1c23 [SMR000044769] | 8.03 |
| COc1ccc(/C=C/c2nc3ccccc3n2C)cc1 [MLS000719304] | 26.1 |

| SMILES | EC50 [µM] |
| --- | --- |
| COc1cc(C=C2SC(Nc3ccc(Cl)c(C(=O)O)c3)=NC2=O)c(Br)c(Br)c1O [2-Chloro-5-[5-(2,3-dibromo-4-hydroxy-5-methoxy-benzylidene)-4-oxo-thiazolidin-2-ylideneamino]-benzoic acid] | 15.9 |
| Oc1ccc(CN=Nc2ccc(C(F)(F)F)cn2)cc1 [4-[[2-[5-(trifluoromethyl)pyridin-2-yl]hydrazinyl]methylidene]cyclohexa-2,5-dien-1-one] | 14.1 |
| CCCCC(CC)CNC(=N)NC(=N)NCCCCCCNC(=N)NC(=N)NCC(CC)CCCC (stereo not drawn) [MLS002153995] | > 120 |
| CN(C)c1cc2c(c(N(C)C)c1)C(=O)c1ccccc1C2=O [1,3-bis(dimethylamino)-9,10-anthraquinone] | 23.8 |
| COC(=O)Nc1nnc(Cc2ccccc2)s1 [N-[5-(phenylmethyl)-1,3,4-thiadiazol-2-yl]carbamic acid methyl ester] | > 120 |
| O=c1c(O)c(-c2ccc(O)c(O)c2)oc2cc(O)cc(O)c12 [2-(3,4-dihydroxyphenyl)-3,5,7-trihydroxy-chromone;hydrate] | 12.4 |
| Oc1cc(O)cc(/C=C/c2ccc(O)cc2O)c1 [(oxyresveratrol)4-[(E)-2-(3,5-dihydroxyphenyl)vinyl]benzene-1,3-diol] | 9.66 |
| COc1ccc(C2=CC3=C(Br)C(=O)C(C)(O)C(=O)C3=CO2)cc1 (stereo not drawn) [5-bromanyl-3-(4-methoxyphenyl)-7-methyl-7-oxidanyl-isochromene-6,8-dione] | 86 |
| CCC(Sc1ccc2nnc(-c3ccc(OC)c(OC)c3)n2n1)C(=O)O (stereo not drawn) | 13.2 |
| Cc1ccc(NC(=O)COC(=O)c2cc(Cl)ccc2Cl)c(Br)c1 [SMR000259824] | > 120 |
| S=C(Nc1cccc(Cl)c1)Nc1ccc2cn[nH]c2c1 [SMR000261299] | > 120 |
| O=NCc1c(Nc2ccccc2)nc2ccccn2c1=O [(3Z)-3-[(hydroxyamino)methylene]-2-phenylimino-pyrido[1,2-a]pyrimidin-4-one] | 6.22 |
| Cc1ccc(NC(=O)c2cccc(C(=O)Nc3ccc(C)cc3C(=O)O)c2)c(C(=O)O)c1 [The compound has not trivial name.] | 21.8 |
| O=C1NC(=O)/C(=C/c2ccc(O)cc2)S1 [SMR000324608] | 12.4 |
| CCOc1cc(C=C(C#N)c2n[nH]c(N)c2C#N)ccc1O [MLS000523215] | 8.62 |
| O=C1c2ccccc2C(=O)C1c1ccccn1 | 5.49 |
| Cc1cc(N2CCN(C)CC2)nc2ccc(NC(=O)c3ccc(Br)o3)cc12 [SMR000022431] | 10.3 |
| COc1c(O)cc2oc(-c3ccc(O)c(O)c3)cc(=O)c2c1O | 11 |

More lines, now with the values ahead:

| EC50 [µM] | SMILES |
| --- | --- |
| 0.416 | CC(Oc1ccc2c(c1)c1ccnc3c4ccccc4c(=O)n2c13)C(=O)NCCN1CCOCC1 (stereo not drawn) [SMR000652046] |
| > 120 | Cc1occc1C(=O)NN=Cc1ccc(N(C)C)cc1 [N-[[4-(dimethylamino)phenyl]methylideneamino]-2-methylfuran-3-carboxamide] |
| 3.55 | Nc1cc(C(=O)O)c(N)c2c1C(=O)c1ccccc1C2=O [1,4-bis(azanyl)-9,10-bis(oxidanylidene)anthracene-2-carboxylic acid] |
| > 120 | CN1CCN(C=NC2=NN(c3cccc(C(F)(F)F)c3)CC2)CC1 [MLS000418536] |
| 34.7 | Nc1c(O)ccc2c1C(=O)c1ccccc1C2=O [1-amino-2-hydroxy-9,10-anthraquinone] |
| 3.05 | Oc1ccc(CN=Nc2ccnc3cc(Cl)ccc23)cc1O [(4Z)-4-[[2-(7-chloroquinolin-4-yl)hydrazinyl]methylidene]-2-hydroxycyclohexa-2,5-dien-1-one] |
| > 120 | C/C=C/Cn1c(SCc2ccc(Cl)cc2)nc2c1c(=O)[nH]c(=O)n2C [7-[(E)-but-2-enyl]-8-[(4-chlorophenyl)methylsulfanyl]-3-methylpurine-2,6-dione] |
| 22 | COc1cc(C=Nn2c(C3CCCCC3)n[nH]c2=S)ccc1O [(4E)-4-[[(3-cyclohexyl-5-sulfanylidene-1H-1,2,4-triazol-4-yl)amino]methylidene]-2-methoxy-cyclohexa-2,5-dien-1-one] |
| 22.7 | COc1cccc(C(=O)ON=C(N)c2ccccn2)c1 [The compound has not trivial name.] |
| 27.6 | COc1cc(C=Nn2c(-c3cc(C)[nH]n3)n[nH]c2=S)ccc1O [MLS000778764] |
| 2.86 | CC(C)n1cnc2c(Nc3cccc(Cl)c3)nc(N(CCO)CCCO)nc21 |
| 37.3 | Cc1cccc(C(=N)NOC(=O)c2ccc3c(c2)OCO3)c1 [MLS000579340] |
| 3.42 | Cc1ncc(C=C2C(=O)Nc3ccccc32)[nH]1 [3-[(Z)-(2-methyl-1H-imidazol-4-yl)methylidene]-1H-indol-2-one] |
| 5.04 | CCNc1nc(N)nc(-c2cc(Cl)ccc2O)n1 [(6E)-6-[6-amino-4-(ethylamino)-1H-1,3,5-triazin-2-ylidene]-4-chloro-1-cyclohexa-2,4-dienone] |
| 12 | COc1cccc(-c2onc3ccc(C(=O)/C=C/N(C)C)cc23)c1 [MLS001165915] |
| 8.73 | O=C1NC(=O)/C(=C\c2ccc(O)cc2O)S1 [SMR000274064] |

| EC50 [µM] | SMILES |
| --- | --- |
| 8.93 | CCCN1C=CC(=C2C(=O)c3ccccc3C2=O)C=C1 [2-(1-propyl-4-pyridinylidene)indene-1,3-dione] |
| 19 | COc1cc(CN=Nc2ccc(C(F)(F)F)cn2)ccc1O [(4E)-2-methoxy-4-[[[5-(trifluoromethyl)-2-pyridinyl]hydrazo]methylidene]-1-cyclohexa-2,5-dienone] |
| 2.11 | O=C1N=C(NCc2ccccc2)SC1=Cc1ccc(O)cc1 [SMR000217101] |
| 33.6 | COc1ccc(-c2oc3ncnc(NCCCN(C)C)c3c2-c2ccc(OC)cc2)cc1 [N-[5,6-bis(4-methoxyphenyl)furo[2,3-d]pyrimidin-4-yl]-N',N'-dimethyl-propane-1,3-diamine] |
| 7.93 | COc1ccccc1NC(=O)Nc1ncccc1C [MLS000072334] |
| 3.82 | O=c1c2ccccc2oc2ccc(NCCCN3CCOCC3)cc12 |
| 42.1 | O=C(Nc1nccs1)c1ccc(N2CCOCC2)c([N+](=O)[O-])c1 [4-morpholin-4-yl-3-nitro-N-(1,3-thiazol-2-yl)benzamide] |
| 25.5 | NC(=O)c1sc2nc(-c3ccco3)ccc2c1N [3-Amino-6-furan-2-yl-thieno[2,3-b]pyridine-2-carboxylic acid amide] |
| 11.3 | O=C1Nc2ccccc2C1C=Nc1ccc2c(c1)OCO2 (stereo not drawn) [(3Z)-3-[(1,3-benzodioxol-5-ylamino)methylidene]-1H-indol-2-one] |
| 2.1 | O=C(Nc1ccccc1-c1nc2ccccc2[nH]c1=O)c1cccs1 [N-[2-(3-oxo-4H-quinoxalin-2-yl)phenyl]-2-thiophenecarboxamide] |
| 8.49 | N#CC(C(=O)c1ccco1)c1nc2ccccc2[nH]1 (stereo not drawn) [SMR000305206] |
| 35.8 | CCCCCCCCCCCCCCCC[N+](C)(C)CCN(Cc1ccc(OC)cc1)c1ncccn1 [SMR001233380] |
| 5.88 | O=C1c2c(O)ccc(O)c2C(=O)c2c(NCCNCCO)ccc(NCCNCCO)c21 [SMR000058480] |
| > 120 | CNC(=S)Nc1cccc(-c2cnc3ccccc3n2)c1 |
| 19.3 | Cc1ccc(-c2nn(CCC(=O)O)cc2/C=C\C(=O)c2ccc(Br)cc2)cc1 [3-[4-[(Z)-3-(4-bromophenyl)-3-oxoprop-1-enyl]-3-(4-methylphenyl)pyrazol-1-yl]propanoic acid] |
